Data published in paper PMC5609913, “Structure based design, synthesis and activity studies of small hybrid molecules as HDAC and G9a dual inhibitors” (Oncotarget, 2017).

Legend:
[1] = molecular target: T1, Mouse histone methyltransferase G9a (969-1263) (Mus musculus, UniProt Q9Z148); assay: MALDI-TOF methylation study of G9a enzymatic activity (H3 peptide, SAM); type: biochemical; conditions: Supplementary Table 1; inhibitor 5 μM, 30 min; average of 3 values
T1 construct: The 6His-sumo mG9a (969-1263) protein was purified using the following procedure; 6His-sumo (N, cleaved yes); made in house; host or cells: Escherichia coli BL21 (DE3)
T1 sequence (Q9Z148 969-1263): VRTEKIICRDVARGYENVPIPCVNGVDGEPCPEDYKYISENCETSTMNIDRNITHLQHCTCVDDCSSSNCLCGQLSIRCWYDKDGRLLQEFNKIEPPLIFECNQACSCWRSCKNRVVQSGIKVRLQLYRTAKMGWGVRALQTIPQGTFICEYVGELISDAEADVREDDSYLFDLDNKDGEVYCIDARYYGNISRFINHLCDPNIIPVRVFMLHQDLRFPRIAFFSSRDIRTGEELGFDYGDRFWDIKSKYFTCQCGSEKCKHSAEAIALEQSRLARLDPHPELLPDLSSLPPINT
Procedure: Figure 3 compounds were synthesized from the commercially available starting material 1. An initial displacement reaction using a primary amine was used to introduce the C4 selective substitution, with the second displacement to introduce the linker at the C2 position following the microwave assisted reaction previously reported. Boc-protected ethylene diamine was treated with compound 2 at 160°C in a microwave for 10 min to yield product 3 with excellent yield. Afterward, the amine 3 was deprotected with TFA/DCM, and the free amine was treated with corresponding monomethyl esters (carbon chain 2-6) in the presence of coupling reagent EDCI and HOBt for about 8 hours to produce mono methyl ester substituted at the C2 position. The ester compounds further treated with hydroxylamine in water to get the corresponding hydroxamic acid derivatives, which were purified using reverse phase flash chromatography to obtain compounds 4-7 and 4a-7a in good yield. Synthesis of compounds in Figure 4 requires the C6 demethoxy core, and this was synthesized according to the reported procedure to yield 10 [45]. […] Compounds with the HDAC pharmacophore at the C4 position (Figure 2B) were synthesized from the starting material 1. […] A parallel synthesis and testing strategy were used in establishing the primary SAR, with the clear rationalization of the structure and activity at each stage we could reduce the synthetic targets. Initially, we evaluated the G9a potential after the introduction of HDAC pharmacophore. A biochemical assay using MALDI-TOF was used to visualize the effects of the synthesized compounds on G9a enzymatic activity, we carried out a biochemical reaction involving target enzyme G9a, methyl donor SAM and substrate H3 peptide at a concentration of 400 nM, 10 μM and 5 μM respectively.
Mouse histone methyltransferase G9a (969-1263) cDNA was amplified from the cDNA of BALB/c mouse thymus, and the fragment was sub-cloned into a vector with a 6His-sumo tag. The mouse G9a (mG9a) was expressed in Escherichia coli BL21 (DE3) by the addition of 1 mM isopropyl-1-thio-D-galactopyranoside (IPTG) and incubated overnight at 16°C.
The in vitro inhibition of G9a by the synthesized compounds were measured by MALDI-TOF mass spectrum (Bruker MALDI TOF/TOF Analyzer). 400 nM purified G9a, 5 μM synthesized histone H3 (1-21) and 10 μM non-radioactive S-adenosyl methionine (Sigma) were added in reaction buffer (50 mM HEPES pH 8.0, 5 μg/ml BSA and 0.1% β-Mercaptoethanol) with or without inhibitors (5 μM). The reaction was incubated at room temperature for 30 min, and stopped by TFA. 1 μl of the sample was mixed with CHCA matrix and m/z peaks were obtained at reflection positive mode. The results of mass spectrum were analyzed using the Bruker flex analysis software, a detailed description of data processing is provided as supplementary information (S3).
[…]
MALDI spectrums were collected using Bruker flex % conversion to product is also C, from this to get the control software and analyzed by flex analysis. After %maximal activity (%MA), C was compared to the % labelling each cluster peaks of H3K9Me0, H3K9Me1 conversion when no inhibitor was used (D). and H3K9Me2 for all of the tested concentrations, area Finally % inhibition was found by subtracting under the cluster (AUC) were extracted by using the same %MA from 100 […]
flex analysis software. % abundance of each peak was Example: % methylation levels and % inhibition calculated by following formula, when used 5 μM compound 14
A = % Abundance of (H3K9Me0) = area of A = 13.09
B = % Abundance of (H3K9Me1) = area of % conversion when no inhibitor was used D = 84.43 H3K9Me1/ (area of H3K9Me0+area of H3K9Me1 + area (average of six measurements) […]

HEK293 cells = assay: Cell anti-proliferation / toxicity assay (CCK-8), HEK293 normal cell line; type: cell-based; conditions: Homo sapiens, Table 6, 72 h
Procedure: (§1) Cell anti-proliferation assays were performed to determine the toxicity of these inhibitors. […] These compounds were further evaluated against the control cell line HEK293 to test their toxicity with a non-cancerous cell line.
(§2) And then the cells were exposed to the different inhibitors with various concentrations for 72 h. […] EC50s were calculated using GraphPad Prizm statistical package with sigmoidal variable slope dose response curve fit.

A549 cells = assay: Cell anti-proliferation / toxicity assay (CCK-8), A549; type: cell-based; conditions: Homo sapiens, Table 6, 72 h, >100 = not reached at highest tested concentration (100 μM)
Procedure: as §1, §2

HDAC [2] = assay: Homogeneous cellular histone deacetylase assay, Hela; type: cell-based, human; conditions: Table 3; Boc-K(Ac)-AMC substrate, intact Hela cells; read-out: Hela IC50
Procedure: (§3) The enzymatic activity of HDAC was measured in intact cells using the homogeneous cellular assay method. A cell-permeable peptide Boc-K(Ac)-AMC used as the HDAC substrate, after deacetylation it is cleaved by trypsin to release the fluorescent 7-amino-4-methylcoumarin (AMC) and further quantified.
(§4) The manual assay was developed by Thomas's group. […] After 24 h, 9 μl inhibitors with different concentration were added to the HeLa cells and incubation was continued for 3 h under cell culture conditions. After this treatment period, 10 μl of a 2 mM stock solution of the substrate Boc-K(Ac)-AMC was added into the 96 well plates with Hela cells and inhibitors. […] A549 and K562 cell lines used the same method, respectively. IC50s were calculated using GraphPad Prizm statistical package with sigmoidal variable slope dose response curve fit.

HDAC [3] = assay: Homogeneous cellular histone deacetylase assay, K562; type: cell-based, human; conditions: Table 3; Boc-K(Ac)-AMC substrate, intact K562 cells; read-out: K562 IC50
Procedure: as §3, §4

HDAC [4] = assay: Homogeneous cellular histone deacetylase assay, A549; type: cell-based, human; conditions: Supplementary Table 2; NA = not active up to highest concentration tested (100 μM); >100 = IC50 not reached at 100 μM
Procedure: as §3, §4

inhibition at 5 µM [1]: 24.9 ± 17.4%
IC50 (HDAC [2]): 15.3 ± 0.79 µM
IC50 (HDAC [3]): 27.8 ± 0.59 µM
IC50 (HDAC [4]): > 100 µM
SMILES: COc1ccc2c(NC3CCN(Cc4ccccc4)CC3)nc(NCCNC(=O)CCCCCCC(=O)NO)nc2c1 [Compound 13, N1-(2-((4-((1-benzylpiperidin-4-yl)amino)-7-methoxyquinazolin-2-yl)amino)ethyl)-N8-hydroxyoctanediamide]
EC50 (HEK293 cells): 57 ± 1.12 µM
EC50 (A549 cells): > 100 µM
